Test results taken from paper PMC10444862, “Using macromolecular electron densities to improve the enrichment of active compounds in virtual screening” (Communications Chemistry, 2023).

Biological target: SARS-COV-2 3CLpro (having a P132H mutation, 3CLpro^P132H) (Severe acute respiratory syndrome coronavirus 2, UniProt P0DTD1, P3395H)
Type: biochemical

Row | SMILES | Inhibition Rate ([Cpd.]=40 uM)
1 | C/C(=N\Nc1nc2c(c(=O)[nH]c(=O)n2C)n1Cc1cccc2ccccc12)c1ccc(O)cc1 [D1, C/C(=N\Nc1nc2c(c(=O)[nH]c(=O)n2C)n1Cc1cccc2ccccc12)c1ccc(O)cc1] | 1.49
2 | O=C(CN1C(=O)NC2(CCCC2)C1=O)Nc1ccccc1C(=O)Nc1ccc2c(c1)OCO2 [D2, O=C(CN1C(=O)NC2(CCCC2)C1=O)Nc1ccccc1C(=O)Nc1ccc2c(c1)OCO2] | 0.56
3 | Cc1c(C(=O)NCCC2=CCCCC2)sc2ncnc(N(C)c3ccccc3)c12 [D3, Cc1c(C(=O)NCCC2=CCCCC2)sc2ncnc(N(C)c3ccccc3)c12] | 0.63
4 | COc1ccc(Cn2cc(C(CC(=O)N3CCCC3)c3ccccc3F)c3ccccc32)cc1 (stereo not shown) [D4, COc1ccc(Cn2cc(C(CC(=O)N3CCCC3)c3ccccc3F)c3ccccc32)cc1] | < 0.5
5 | COc1ccccc1-n1c(=O)c2c3c(sc2n(Cc2cccc(F)c2)c1=O)CN(C(C)=O)CC3 [D5, COc1ccccc1-n1c(=O)c2c3c(sc2n(Cc2cccc(F)c2)c1=O)CN(C(C)=O)CC3] | < 0.5
6 | CC(C)C(NC(=O)c1ccccc1Cl)C(=O)OCC(=O)Nc1cccc(S(N)(=O)=O)c1 (stereo not shown) [D6, CC(C)C(NC(=O)c1ccccc1Cl)C(=O)OCC(=O)Nc1cccc(S(N)(=O)=O)c1] | < 0.5
7 | COc1ccccc1-n1c(=O)c2c3c(sc2n(Cc2cccc(Cl)c2)c1=O)CN(C(C)=O)CC3 [D7, COc1ccccc1-n1c(=O)c2c3c(sc2n(Cc2cccc(Cl)c2)c1=O)CN(C(C)=O)CC3] | < 0.5
8 | O=C(c1ccsc1)N1CCC[C@H](n2c(=O)n(Cc3cccc(F)c3)c3cccnc32)C1 [D8, O=C(c1ccsc1)N1CCC[C@H](n2c(=O)n(Cc3cccc(F)c3)c3cccnc32)C1] | < 0.5
9 | Cc1ccccc1N1C(=O)C(=Cc2ccc(N3CCOCC3)cc2)c2ccccc2C1=O [D9, Cc1ccccc1N1C(=O)C(=Cc2ccc(N3CCOCC3)cc2)c2ccccc2C1=O] | < 0.5
10 | C/C(=N\Nc1nc2c(c(O)nc(=O)n2C)n1Cc1cccc2ccccc12)c1ccc(O)cc1 [D10, C/C(=N\Nc1nc2c(c(O)nc(=O)n2C)n1Cc1cccc2ccccc12)c1ccc(O)cc1] | < 0.5
11 | Cc1ccc(N2C(=O)N(CC(=O)Nc3cccc(S(N)(=O)=O)c3)C(=O)C2C)cc1 (stereo not shown) [D11, Cc1ccc(N2C(=O)N(CC(=O)Nc3cccc(S(N)(=O)=O)c3)C(=O)C2C)cc1] | < 0.5
12 | CC1CC(C)CN(C(=O)c2ccccc2NC(=O)N2CC(O)CC(F)(F)C2)C1 (stereo not shown) [D12, CC1CC(C)CN(C(=O)c2ccccc2NC(=O)N2CC(O)CC(F)(F)C2)C1] | < 0.5
13 | CC(C)[C@H](NS(=O)(=O)c1ccccc1F)C(=O)OCC(=O)Nc1cccc(S(N)(=O)=O)c1 [D13, CC(C)[C@H](NS(=O)(=O)c1ccccc1F)C(=O)OCC(=O)Nc1cccc(S(N)(=O)=O)c1] | < 0.5
14 | Cc1c(C(=O)N(C)Cc2ccccc2)sc2ncnc(N(C)c3ccccc3)c12 [D14, Cc1c(C(=O)N(C)Cc2ccccc2)sc2ncnc(N(C)c3ccccc3)c12] | < 0.5
15 | Cn1nccc1C(=O)N1CCC[C@H](n2c(=O)n(Cc3ccccc3)c3cccnc32)C1 [D15, Cn1nccc1C(=O)N1CCC[C@H](n2c(=O)n(Cc3ccccc3)c3cccnc32)C1] | < 0.5
16 | O=CN1CCCN(C(=O)CC2C(=O)NCCN2Cc2cccc(Oc3ccccc3)c2)CC1 (stereo not shown) [D16, O=CN1CCCN(C(=O)CC2C(=O)NCCN2Cc2cccc(Oc3ccccc3)c2)CC1] | < 0.5
17 | COc1ccccc1-n1c(=O)c2c3c(sc2n(Cc2ccccc2)c1=O)CN(C(C)=O)CC3 [D17, COc1ccccc1-n1c(=O)c2c3c(sc2n(Cc2ccccc2)c1=O)CN(C(C)=O)CC3] | < 0.5
18 | O=C(c1ccco1)N1CCC[C@H](n2c(=O)n(Cc3ccccc3)c3cccnc32)C1 [D18, O=C(c1ccco1)N1CCC[C@H](n2c(=O)n(Cc3ccccc3)c3cccnc32)C1] | < 0.5
19 | O=C(Nc1ccccc1)N1CCCC(C(=O)N2CC(C(=O)N3CCCCC3)Oc3ccccc32)C1 (stereo not shown) [D19, O=C(Nc1ccccc1)N1CCCC(C(=O)N2CC(C(=O)N3CCCCC3)Oc3ccccc32)C1] | < 0.5
20 | C[C@@]1(O)C[C@H](O)CN(C(=O)[C@@H](N)Cc2ccc(O)cc2)C[C@H]1n1cnc2c(N)nc(N)nc21 [D20, C[C@@]1(O)C[C@H](O)CN(C(=O)[C@@H](N)Cc2ccc(O)cc2)C[C@H]1n1cnc2c(N)nc(N)nc21] | < 0.5
21 | O=C(NC(c1ccccc1)c1ccc2[nH]cnc2c1)C1=NN(C2CCS(=O)(=O)C2)C(=O)CC1 (stereo not shown) [D21, O=C(NC(c1ccccc1)c1ccc2[nH]cnc2c1)C1=NN(C2CCS(=O)(=O)C2)C(=O)CC1] | < 0.5
22 | CC(=O)N1CCc2c(sc3c2c(=O)n(-c2ccccc2)c(=O)n3CC(=O)c2ccc(F)cc2)C1 [D22, CC(=O)N1CCc2c(sc3c2c(=O)n(-c2ccccc2)c(=O)n3CC(=O)c2ccc(F)cc2)C1] | < 0.5
23 | COCCn1/c(=N/C(=O)c2c(F)cccc2F)sc2cc(S(N)(=O)=O)ccc21 [D23, COCCn1/c(=N/C(=O)c2c(F)cccc2F)sc2cc(S(N)(=O)=O)ccc21] | < 0.5

Row | SMILES | Inhibition Rate ([Cpd.]=40 uM)
24 | O=C(c1cccc(O)c1)N1C[C@@H](c2cc(F)cc(F)c2)[C@@H]2[C@H]1C1CCN2CC1 [D24, O=C(c1cccc(O)c1)N1C[C@@H](c2cc(F)cc(F)c2)[C@@H]2[C@H]1C1CCN2CC1] | < 0.5
25 | Cn1c(NC(=O)c2cnn3c(C(F)(F)F)cc(-c4cccc5ccccc45)nc23)nc2ccccc21 [E1, Cn1c(NC(=O)c2cnn3c(C(F)(F)F)cc(-c4cccc5ccccc45)nc23)nc2ccccc21] | 0.82
26 | CCn1c(=O)n(CCC(=O)NC(Cc2ccccc2)c2nc3ccccc3[nH]2)c2ccccc21 (stereo not shown) [E2, CCn1c(=O)n(CCC(=O)NC(Cc2ccccc2)c2nc3ccccc3[nH]2)c2ccccc21] | 0.67
27 | CC(=O)N1CCc2c(sc3c2c(=O)n(-c2ccc(F)cc2)c(=O)n3Cc2cc(C)ccc2C)C1 [E3, CC(=O)N1CCc2c(sc3c2c(=O)n(-c2ccc(F)cc2)c(=O)n3Cc2cc(C)ccc2C)C1] | 0.92
28 | O=C1/C(=C\NN(Cc2ccccc2)c2ccccc2)c2ccccc2C(=O)N1c1cccc(Cl)c1 [E4, O=C1C(=CNN(Cc2ccccc2)c2ccccc2)c2ccccc2C(=O)N1c1cccc(Cl)c1] | 0.65
29 | CC(=O)N1CCc2c(sc3c2c(=O)n(-c2ccccc2)c(=O)n3Cc2cc(C)ccc2C)C1 [E5, CC(=O)N1CCc2c(sc3c2c(=O)n(-c2ccccc2)c(=O)n3Cc2cc(C)ccc2C)C1] | 0.64
30 | O=C(c1cccnc1)N1CCc2c([nH]c3ccccc23)C1c1cccc(C(F)(F)F)c1 (stereo not shown) [E6, O=C(c1cccnc1)N1CCc2c([nH]c3ccccc23)C1c1cccc(C(F)(F)F)c1] | 0.55
31 | CC(=O)N1C(C(=O)N(CCc2ccccc2)Cc2ccccc2)CSC1c1ccccc1O (stereo not shown) [E7, CC(=O)N1C(C(=O)N(CCc2ccccc2)Cc2ccccc2)CSC1c1ccccc1O] | 0.63
32 | Cc1cccc(Cn2c(=O)c(C(=O)NCc3ccco3)nn(-c3ccccc3F)c2=O)c1 [E8, Cc1cccc(Cn2c(=O)c(C(=O)NCc3ccco3)nn(-c3ccccc3F)c2=O)c1] | 0.66
33 | CCc1ccccc1N(CC(=O)Nc1ccccc1C(=O)NC(C)CC)S(=O)(=O)c1ccccc1 (stereo not shown) [E9, CCc1ccccc1N(CC(=O)Nc1ccccc1C(=O)NC(C)CC)S(=O)(=O)c1ccccc1] | 0.54
34 | COc1ccc(/N=C(/Nc2ccc(OC)cc2)c2cccc3ccccc23)cc1 [E10, COc1ccc(/N=C(/Nc2ccc(OC)cc2)c2cccc3ccccc23)cc1] | < 0.5
35 | CN(CCCN(Cc1cccn1Cc1ccc(Cl)cc1)C(=O)Nc1ccccc1)c1ccccc1 [E11, CN(CCCN(Cc1cccn1Cc1ccc(Cl)cc1)C(=O)Nc1ccccc1)c1ccccc1] | < 0.5
36 | CCOc1ccc(N(Cc2nnc3n2CCCCC3)C(=O)Nc2ccc(C)cc2)cc1 [E12, CCOc1ccc(N(Cc2nnc3n2CCCCC3)C(=O)Nc2ccc(C)cc2)cc1] | < 0.5
37 | CC(=O)N1CCc2c(sc3c2c(=O)n(Cc2ccccc2)c(=O)n3Cc2cccc(C)c2)C1 [E13, CC(=O)N1CCc2c(sc3c2c(=O)n(Cc2ccccc2)c(=O)n3Cc2cccc(C)c2)C1] | < 0.5
38 | COc1cccc(-n2c(=O)c3c(C)c(C(=O)N(C)C)sc3n(Cc3cccc(F)c3)c2=O)c1 [E14, COc1cccc(-n2c(=O)c3c(C)c(C(=O)N(C)C)sc3n(Cc3cccc(F)c3)c2=O)c1] | < 0.5
39 | CCN(CC)C(=O)c1sc2c(c1C)c(=O)n(-c1ccccc1)c(=O)n2Cc1cccc(Cl)c1 [E15, CCN(CC)C(=O)c1sc2c(c1C)c(=O)n(-c1ccccc1)c(=O)n2Cc1cccc(Cl)c1] | < 0.5
40 | CC(=O)N1CCc2c(sc3c2c(=O)n(-c2ccccc2C)c(=O)n3Cc2cc(C)ccc2C)C1 [E16, CC(=O)N1CCc2c(sc3c2c(=O)n(-c2ccccc2C)c(=O)n3Cc2cc(C)ccc2C)C1] | < 0.5
41 | NC(=O)C[C@H]1CN(C(=O)COc2ncccn2)C[C@H]1OC(=O)c1ccccc1 [E17, NC(=O)C[C@H]1CN(C(=O)COc2ncccn2)C[C@H]1OC(=O)c1ccccc1] | < 0.5
42 | CC(=O)c1ccc(C(=O)N2CCc3c([nH]c4ccccc34)C2c2ccccc2F)s1 (stereo not shown) [E18, CC(=O)c1ccc(C(=O)N2CCc3c([nH]c4ccccc34)C2c2ccccc2F)s1] | < 0.5
43 | COc1cccc(CN(CCc2c[nH]c3ccccc23)C(=O)c2ccnn2C)c1 [E19, COc1cccc(CN(CCc2c[nH]c3ccccc23)C(=O)c2ccnn2C)c1] | < 0.5
44 | COCc1ccc(C(=O)N(Cc2ccccc2)Cc2nc3ccccc3c(=O)[nH]2)cc1 [E20, COCc1ccc(C(=O)N(Cc2ccccc2)Cc2nc3ccccc3c(=O)[nH]2)cc1] | < 0.5
45 | O=C1[C@@H]2Cc3c([nH]c4ccccc34)C(c3cccc([N+](=O)[O-])c3)N2C(=O)CN1CC(O)c1ccccc1 (stereo partly shown) [E21, O=C1[C@@H]2Cc3c([nH]c4ccccc34)C(c3cccc([N+](=O)[O-])c3)N2C(=O)CN1CC(O)c1ccccc1] | < 0.5
46 | O=C(c1cc(=O)c2ccccc2o1)N1CCc2c([nH]c3ccccc23)C1c1ccccc1F (stereo not shown) [E22, O=C(c1cc(=O)c2ccccc2o1)N1CCc2c([nH]c3ccccc23)C1c1ccccc1F] | < 0.5
